{"source": "patent US10760052B2", "about": "“Method of inhibiting tau phosphorylation” (priority 2012, dated 2020)", "key": {"[1]": {"biological_target": "T1, α7nAChR-FLNA complex (Rattus norvegicus, UniProt A0A8I5ZV49)", "T1 construct": "from tissue; host or cells: rat frontal cortex synaptosomes", "T1 sequence (A0A8I5ZV49 entry or part of it, one chain of several)": "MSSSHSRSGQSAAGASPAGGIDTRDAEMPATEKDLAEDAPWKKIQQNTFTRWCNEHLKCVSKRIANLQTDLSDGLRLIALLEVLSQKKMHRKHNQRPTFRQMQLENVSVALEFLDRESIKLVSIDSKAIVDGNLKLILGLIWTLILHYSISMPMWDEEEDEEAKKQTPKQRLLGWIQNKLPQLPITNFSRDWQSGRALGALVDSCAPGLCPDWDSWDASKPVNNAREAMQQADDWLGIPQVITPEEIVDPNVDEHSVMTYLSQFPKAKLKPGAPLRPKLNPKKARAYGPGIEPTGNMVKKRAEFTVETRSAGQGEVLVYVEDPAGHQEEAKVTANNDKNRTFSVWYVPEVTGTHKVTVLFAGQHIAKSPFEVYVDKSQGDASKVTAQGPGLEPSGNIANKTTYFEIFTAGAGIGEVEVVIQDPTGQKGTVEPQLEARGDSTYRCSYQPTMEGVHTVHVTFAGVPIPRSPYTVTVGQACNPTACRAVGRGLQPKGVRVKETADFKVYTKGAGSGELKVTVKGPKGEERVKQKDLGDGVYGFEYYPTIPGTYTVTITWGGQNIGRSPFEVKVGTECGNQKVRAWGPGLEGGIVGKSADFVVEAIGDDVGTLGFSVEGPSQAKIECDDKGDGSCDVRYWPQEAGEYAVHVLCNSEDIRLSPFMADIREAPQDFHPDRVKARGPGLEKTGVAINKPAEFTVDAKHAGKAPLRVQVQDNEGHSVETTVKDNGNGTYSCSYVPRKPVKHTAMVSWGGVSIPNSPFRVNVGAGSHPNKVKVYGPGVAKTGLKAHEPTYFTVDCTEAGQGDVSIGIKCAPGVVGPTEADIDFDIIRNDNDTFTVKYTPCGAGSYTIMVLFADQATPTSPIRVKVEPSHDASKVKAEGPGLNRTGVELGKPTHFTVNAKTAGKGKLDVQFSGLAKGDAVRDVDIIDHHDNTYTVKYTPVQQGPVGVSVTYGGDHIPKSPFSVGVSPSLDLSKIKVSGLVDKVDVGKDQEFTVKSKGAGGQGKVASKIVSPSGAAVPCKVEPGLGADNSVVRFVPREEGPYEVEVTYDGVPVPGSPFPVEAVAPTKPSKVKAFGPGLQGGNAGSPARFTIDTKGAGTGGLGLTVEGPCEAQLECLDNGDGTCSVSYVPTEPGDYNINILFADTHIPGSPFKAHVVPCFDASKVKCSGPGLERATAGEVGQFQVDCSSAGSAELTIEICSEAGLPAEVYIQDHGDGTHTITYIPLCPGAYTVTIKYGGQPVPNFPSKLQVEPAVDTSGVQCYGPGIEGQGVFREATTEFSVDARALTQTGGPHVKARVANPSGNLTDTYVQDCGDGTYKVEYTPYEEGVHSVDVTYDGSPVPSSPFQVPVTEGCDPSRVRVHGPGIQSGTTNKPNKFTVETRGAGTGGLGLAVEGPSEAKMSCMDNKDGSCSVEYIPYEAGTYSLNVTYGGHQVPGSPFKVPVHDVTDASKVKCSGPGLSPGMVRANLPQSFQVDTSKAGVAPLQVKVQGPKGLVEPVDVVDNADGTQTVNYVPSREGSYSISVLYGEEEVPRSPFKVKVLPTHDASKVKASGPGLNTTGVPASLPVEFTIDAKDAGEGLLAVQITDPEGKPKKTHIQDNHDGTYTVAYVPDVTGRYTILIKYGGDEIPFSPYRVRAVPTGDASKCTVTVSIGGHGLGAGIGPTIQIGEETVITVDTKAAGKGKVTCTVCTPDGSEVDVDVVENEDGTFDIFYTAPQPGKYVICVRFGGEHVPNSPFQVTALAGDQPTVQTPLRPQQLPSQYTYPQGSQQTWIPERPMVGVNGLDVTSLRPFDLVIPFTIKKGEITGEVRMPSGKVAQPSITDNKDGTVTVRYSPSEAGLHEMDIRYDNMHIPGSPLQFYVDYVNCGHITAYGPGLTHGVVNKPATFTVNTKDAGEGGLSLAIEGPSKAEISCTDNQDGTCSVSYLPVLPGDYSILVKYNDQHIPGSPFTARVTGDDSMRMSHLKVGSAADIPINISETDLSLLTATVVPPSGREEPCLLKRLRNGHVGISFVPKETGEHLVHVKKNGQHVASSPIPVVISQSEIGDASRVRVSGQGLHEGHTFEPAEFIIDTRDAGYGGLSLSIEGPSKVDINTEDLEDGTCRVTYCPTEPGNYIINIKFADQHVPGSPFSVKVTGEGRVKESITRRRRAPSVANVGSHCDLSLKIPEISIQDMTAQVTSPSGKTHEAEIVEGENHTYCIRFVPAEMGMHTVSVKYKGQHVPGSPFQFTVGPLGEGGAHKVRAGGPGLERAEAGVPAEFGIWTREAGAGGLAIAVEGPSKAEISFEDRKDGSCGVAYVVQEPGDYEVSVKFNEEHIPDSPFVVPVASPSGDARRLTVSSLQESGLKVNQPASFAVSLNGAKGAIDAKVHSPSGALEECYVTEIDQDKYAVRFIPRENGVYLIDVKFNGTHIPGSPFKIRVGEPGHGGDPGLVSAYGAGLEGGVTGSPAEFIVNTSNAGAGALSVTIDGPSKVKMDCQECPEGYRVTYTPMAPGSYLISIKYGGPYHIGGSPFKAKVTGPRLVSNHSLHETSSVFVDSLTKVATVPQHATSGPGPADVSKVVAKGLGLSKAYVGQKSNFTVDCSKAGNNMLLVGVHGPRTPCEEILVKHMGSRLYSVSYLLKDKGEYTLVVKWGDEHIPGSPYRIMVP", "assay": "Aβ42-induced α7nAChR-FLNA association in rat frontal cortical synaptosomes (co-immunoprecipitation/Western blot)", "format": "cell-based", "settings": "1 or 10 nM compound, simultaneously or 10 minutes prior to Aβ42 (0.1 μM)", "from_the_text": "The α7nAChR-FLNA complexes in the solubilized synaptosomes were immunoprecipitated with immobilized anti-FLNA and the α7nAChR and FLNA levels in the anti-FLNA immunoprecipitates determined by Western blotting (FIG. 2A) and quantified by densitometry (FIG. 2B). n=3. […] The letter designation “M” that accompanies many of the “C-series” compounds is omitted from FIG. 2, the remaining figures and most discussions of the figures and compounds hereinafter for ease in expression. Structural formulas of the compounds used in this and the other figures are provided hereinafter. […]"}, "[2]": {"biological_target": "T2, α7nAChR-FLNA complex (Homo sapiens, UniProt P36544)", "T2 construct": "In postmortem control frontocortical tissue, Aβ42-induced FLNA recruitment to α7nAChRs was mimicked; from tissue; host or cells: postmortem frontal cortex of control subjects", "T2 sequence (P36544 23-502, one chain of several)": "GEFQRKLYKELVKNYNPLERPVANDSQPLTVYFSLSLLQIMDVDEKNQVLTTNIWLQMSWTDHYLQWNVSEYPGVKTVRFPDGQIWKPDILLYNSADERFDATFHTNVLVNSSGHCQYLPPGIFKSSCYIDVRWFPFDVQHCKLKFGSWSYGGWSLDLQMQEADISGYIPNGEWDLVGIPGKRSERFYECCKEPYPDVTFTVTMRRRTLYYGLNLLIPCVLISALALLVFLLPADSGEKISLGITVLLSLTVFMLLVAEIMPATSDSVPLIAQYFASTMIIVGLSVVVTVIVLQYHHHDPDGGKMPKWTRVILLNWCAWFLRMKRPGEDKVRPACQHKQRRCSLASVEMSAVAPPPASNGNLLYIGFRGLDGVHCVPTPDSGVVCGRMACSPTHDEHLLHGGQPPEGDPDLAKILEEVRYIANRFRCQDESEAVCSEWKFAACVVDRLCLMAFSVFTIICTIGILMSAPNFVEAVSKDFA", "format": "cell-based", "description": "Incubation continued for 1 hour in the dark. […] The reaction was terminated by the addition of 1.5 ml of ice-cold Ca^2+-free K-R, and slices were collected by a brief centrifugation.\nSolubilized immunoprecipitates derived from co-immunoprecipitation assays were separated by either 7.5 or 10% SDS-PAGE and then electrophoretically transferred to nitrocellulose membranes. The membranes were washed with PBS and blocked overnight (about 18 hours) at 4° C. with 10% milk in PBS with 0.1% Tween®-20 (PBST). Following three 5-minute washes with 0.1% PBST, the membranes were incubated at room temperature for 2 hours with antibody of choice at 1:500-1:1,000 dilutions. After three 2-minute washes in 0.1% PBST, membranes were incubated for 1 hour with anti-species IgG-HRP (1:5,000 dilution) and washed with 0.1% PBST three times, 2-minutes each. Immunoreactivity was visualized by reacting with chemiluminescent reagent (Pierce-ENDOGEN) for exactly 5 minutes and immediately exposing to X-ray film. Specific bands were quantified by densitometric scanning (GS-800 calibrated densitometer, Bio-Rad Laboratories)."}, "[3]": {"biological_target": "T3, mu opiate receptor (MOR) (Rattus norvegicus, UniProt P33535)", "T3 construct": "from tissue; host or cells: striatum (membrane preparation)", "T3 sequence (P33535 whole entry)": "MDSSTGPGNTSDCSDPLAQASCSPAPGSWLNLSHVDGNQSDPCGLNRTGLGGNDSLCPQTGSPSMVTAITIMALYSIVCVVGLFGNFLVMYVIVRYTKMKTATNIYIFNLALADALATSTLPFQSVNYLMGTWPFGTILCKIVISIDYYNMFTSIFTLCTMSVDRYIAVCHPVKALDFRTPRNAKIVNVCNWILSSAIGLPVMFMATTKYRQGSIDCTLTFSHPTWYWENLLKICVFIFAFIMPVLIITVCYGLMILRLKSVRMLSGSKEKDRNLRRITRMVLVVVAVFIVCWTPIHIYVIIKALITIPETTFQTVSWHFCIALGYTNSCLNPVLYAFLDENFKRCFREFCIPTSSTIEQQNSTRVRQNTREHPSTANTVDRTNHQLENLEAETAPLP", "format": "biochemical", "settings": "preliminary study; for MOR agonist activity ([35S]GTPγS binding), compound as agonist: average of two runs"}, "[4]": {"biological_target": "VAKGL pentapeptide of filamin A (FLNA) of SEQ ID NO: 1 (Homo sapiens, UniProt P21333)", "assay": "FITC-NLX-based FLNA screening assay (inhibition of FITC-naloxone binding to Bn-VAKGL on streptavidin plates)", "settings": "for Binding to FLNA (in words): preliminary study; for Percent binding inhibition, preliminary study: 100 nM frozen-stored FITC-NLX, average of two runs"}, "[5]": {"system": "tau protein phosphorylated at S202, T231 and T181", "assay": "Aβ42-induced tau phosphorylation in rat frontal cortical synaptosomes", "format": "cell-based", "settings": "1 or 10 nM compound, simultaneously or 10-minute pretreatment; Aβ42 0.1 μM", "description": "FIG. 4 in four panels as FIGS. 4A-4D, illustrates that FLNA-binding compounds reduce tau phosphorylation at all three phosphorylation sites. […] The three phosphoepitopes of tau were detected in immunoprecipitates using specific antibodies. […] Immunoprecipitates were determined by Western blotting (FIGS. 4A-4C) and quantified by densitometry (FIG. 4D).\n(§1) FIG. 42, also in two panels, FIGS. 42A and 42B, illustrates that FLNA-binding compounds reduce tau phosphorylation at all three phosphorylation sites using the compounds and concentrations of FIG. 41 using immunoprecipitation and Western blotting. […] The three phosphoepitopes of tau were detected in immunoprecipitates using specific antibodies.\nas §1, with “44,” for “42,”, “FIG. 44A” for “FIGS. 42A”, “FIG. 44B,” for “42B,”, “43” for “41”, “antibodies. Aβ42 strongly promotes tau phosphorylation at all three sites.” for “antibodies.”\nas §1, with “46,” for “42,”, “FIG. 46A” for “FIGS. 42A”, “FIG. 46B,” for “42B,”, “45” for “41”, “antibodies. Aβ42 strongly promotes tau phosphorylation at all three sites.” for “antibodies.”\nThe three primary phosphorylation sites on tau protein were examined for their phosphorylation levels compared to total tau protein content. Tau, phosphorylated at these three sites, is a constituent of NFTs. Consistent with effects on FLNA-α7nAChR association, and ERK2 activation, all of the FLNA-binding compounds assayed, with 10 minute pre-incubation, decreased Aβ42-induced phosphorylation of tau at all three sites (FIG. 4)."}}, "note": "Where “and” joins values, the source holds several entries; their conditions need not be identical. Equal entries are not always repeated. Where two headings read alike, the source gives them in different places.", "data": [{"smiles": "CC(=O)c1ccc(S(=O)(=O)N2CCC3(CC2)NC(=O)CO3)cc1", "note": "[Compound C0087]", "values": [{"measurement": "α7nAChR-FLNA association (ratio α7nAChR/FLNA)", "setting": "[1]", "result": "reduce α7nAChR-FLNA association"}]}, {"smiles": "COc1ccc2c3c1O[C@H]1C[C@@H](O)C=C[C@@]31CCN(C)C2", "note": "[Galantamine, galantamine]", "values": [{"measurement": "FLNA/α7nAChR ratio (stimulation vs vehicle, %)", "setting": "[2]; 1 μM agent", "result": "(17.1 ± 14.6) %"}, {"measurement": "Aβ42 effect, %", "setting": "[2]; 1 μM agent, relative to 0.1 μM Aβ42", "result": "1.7 ± 1.5", "unit": "%"}]}, {"smiles": "O=C(N[C@H]1CN2CCC1CC2)c1ccc(Cl)cc1", "note": "[PNU282987]", "values": [{"measurement": "Aβ42 effect, %", "setting": "[2]", "result": "8.9 ± 3.9", "unit": "%"}, {"measurement": "FLNA/α7nAChR ratio", "setting": "[2]", "result": "0.12 ± 0.02"}, {"measurement": "FLNA/α7nAChR ratio (stimulation vs vehicle, %)", "setting": "[2]", "result": "(87.1 ± 37.9) %"}]}, {"smiles": "C=CCN1CCC2(CC1)OCCN2S(=O)(=O)c1ccc(C)cc1", "note": "[Compound 10]", "values": [{"measurement": "MOR agonist activity ([35S]GTPγS binding), compound as agonist", "setting": "[3]; 0.1 μM", "result": 163.1, "unit": "%"}, {"measurement": "MOR agonist activity ([35S]GTPγS binding), compound as agonist", "setting": "[3]; 1 μM + βNFA", "result": 60.4, "unit": "%"}, {"measurement": "MOR agonist activity ([35S]GTPγS binding), compound as agonist", "setting": "[3]; 1 μM", "result": 191.8, "unit": "%"}, {"measurement": "MOR agonist activity (in words)", "setting": "[3]", "result": "MOR agonists"}, {"measurement": "Binding to FLNA (in words)", "setting": "[4]", "result": "bind well to FLNA"}]}, {"smiles": "C=CCN1CC[C@]23c4c5ccc(O)c4O[C@H]2C(=O)CC[C@]3(O)[C@H]1C5", "note": "[(+) NLX, (+)naloxone]", "values": [{"measurement": "Percent binding inhibition, preliminary study", "setting": "[4]; 0.1 nM compound", "result": 22.7, "unit": "%"}, {"measurement": "Percent binding inhibition, preliminary study", "setting": "[4]; 1 nM compound", "result": 22.8, "unit": "%"}, {"measurement": "Percent binding inhibition, preliminary study", "setting": "[4]; 10 nM compound", "result": 23.1, "unit": "%"}, {"measurement": "Percent binding inhibition, preliminary study", "setting": "[4]; 100 nM compound", "result": 22.8, "unit": "%"}, {"measurement": "Percent binding inhibition, preliminary study", "setting": "[4]; 1 μM compound", "result": 39.8, "unit": "%"}]}, {"smiles": "Cc1ccc(S(=O)(=O)N2CCOC23CCN(CC2CCC2)CC3)cc1", "note": "[Compound 9]", "values": [{"measurement": "MOR agonist activity ([35S]GTPγS binding), compound as agonist", "setting": "[3]; 0.1 μM", "result": 156.6, "unit": "%"}, {"measurement": "MOR agonist activity ([35S]GTPγS binding), compound as agonist", "setting": "[3]; 1 μM + βNFA", "result": 56.6, "unit": "%"}, {"measurement": "MOR agonist activity ([35S]GTPγS binding), compound as agonist", "setting": "[3]; 1 μM", "result": 197.2, "unit": "%"}, {"measurement": "MOR agonist activity (in words)", "setting": "[3]", "result": "MOR agonists"}, {"measurement": "Binding to FLNA (in words)", "setting": "[4]", "result": "bind well to FLNA"}]}, {"smiles": "C=CCN1CC[C@]23c4c5ccc(O)c4O[C@H]2C(=O)CC[C@@]3(O)[C@H]1C5", "note": "[Naloxone, naloxone]", "values": [{"measurement": "Percent Binding Inhibition (FITC-NLX binding)", "setting": "[4]", "result": "39.87% and 46.29% and 50.91%"}]}, {"smiles": "O=S(=O)(c1ccc(OC(F)(F)F)cc1)N1CCOC12CCN(CC1CC1)CC2", "note": "[Compound 4]", "values": [{"measurement": "MOR agonist activity ([35S]GTPγS binding), compound as agonist", "setting": "[3]; 0.1 μM", "result": 133.9, "unit": "%"}, {"measurement": "MOR agonist activity ([35S]GTPγS binding), compound as agonist", "setting": "[3]; 1 μM + βNFA", "result": 49.5, "unit": "%"}, {"measurement": "MOR agonist activity ([35S]GTPγS binding), compound as agonist", "setting": "[3]; 1 μM", "result": 165.2, "unit": "%"}, {"measurement": "MOR agonist activity (in words)", "setting": "[3]", "result": "not as potent a MOR agonist"}, {"measurement": "Binding to FLNA (in words)", "setting": "[4]", "result": "bound well to FLNA"}]}, {"smiles": "Cc1ccc(S(=O)(=O)N2CCOC23CCN(CC2CC2)CC3)cc1", "note": "[Compound C0134]", "values": [{"measurement": "α7nAChR-FLNA association (ratio α7nAChR/FLNA)", "setting": "[1]", "result": "statistically different from Aβ42 alone"}]}, {"smiles": "O=C1CNC2(CCN(C(=S)Nc3ccccc3)CC2)N1Cc1ccccc1", "note": "[Compound A]", "values": [{"measurement": "α7nAChR-FLNA association (ratio α7nAChR/FLNA)", "setting": "[1]", "result": "statistically different from Aβ42 alone"}, {"measurement": "Aβ42-induced tau phosphorylation at S202, T231 and T181", "setting": "[5]", "result": "reduced tau phosphorylation with simultaneous administration at 1 nM"}]}]}
